Assay results taken from patent publication US20260265245A1, “AROMATIC HETEROCYCLIC DERIVATIVE HAVING GLP-1 RECEPTOR AGONIST ACTIVITY” (Shionogi & Co., Ltd., priority 2021, published 2026).

Biological target: T1, Human GLP-1 receptor (Homo sapiens, UniProt P43220)
T1 construct: expressed in transfected cells
Assay: Measurement of GLP-1 receptor agonist activity (cAMP assay)
Type: cell-based
Conditions: hGLP-1R/CHO-K1 cells; for Emax: cAMP with 2 nM human GLP-1 (7-36) = 100%, DMSO only = 0%; for EC50: increase in cAMP concentration as index, 37° C., 1 hour
Protocol: Test Example 1: Measurement of GLP-1 Receptor Agonist Activity
Human GLP-1 receptor stably expressing cells (hGLP-1R/CHO-K1 cells) are cultured in an a-MEM medium (Sigma) containing 10% FBS (Hyclone), 2% GlutaMAX (Gibco), 1% G418 (Nacalai Tesque), and 1% Penicillin-Streptomycin Mixed Solution (Sigma) at 37° C. under 5% CO2 conditions, and recovered by treating a 10 fold diluted 5.0 g/l-trypsin/5.3 mmol/l-EDTA solution (Nacalai Tesque) and cryopreserved.
A DMSO solution containing the compound of the present invention or human GLP-1 (7-36) (Phoenix Pharmaceuticals) is dispensed into a 384-well microplate (Greiner) at 62.5 nL/well, and in addition, 400 μM Forskolin (Nacalai Tesque) is dispensed therein at 7.5 nL/well. Subsequently, the frozen GLP-1 R/CHO-K1 cells are thawed in a thermostatic bath at 37° C., suspended in HBSS buffer containing 0.1% BSA (Sigma), 20 mM HEPES (GIBCO), 0.1 mM IBMX (Sigma), and 0.2 mM RO20-1724 (Calbiochem) at 2×10^4 cells/mL, and the cell suspension is added at 6 μL/well. The solution was incubated at 37° C. for 1 hour and intracellular cAMP concentration is measured using CAMP Gs dynamic kit (Cisbio) according to the protocol attached to the product. Specifically, a cAMP-d2/Anti-cAMP-Cryptate (1/1) mixed solution is added in a total amount of 6 μL/well, the mixture is incubated at room temperature for 1 hour, and time-resolved fluorescence is measured using PHERAstar (BMG Labtech).
Assuming that the CAMP concentration when human GLP-1 (7-36) is dispensed to a final concentration of 2 nM is 100% and the CAMP concentration when only DMSO is dispensed is 0%, the 50% effective concentration (EC50) and the maximum effect (Emax) of the compound of the present invention are calculated using an increase in the CAMP concentration as an index, using TIBCO Spotfire (TIBCO Software). The dilution concentration or the dilution solvent are changed as necessary.
The compounds of the present invention were tested essentially as described above.

T1 sequence (P43220 24-463): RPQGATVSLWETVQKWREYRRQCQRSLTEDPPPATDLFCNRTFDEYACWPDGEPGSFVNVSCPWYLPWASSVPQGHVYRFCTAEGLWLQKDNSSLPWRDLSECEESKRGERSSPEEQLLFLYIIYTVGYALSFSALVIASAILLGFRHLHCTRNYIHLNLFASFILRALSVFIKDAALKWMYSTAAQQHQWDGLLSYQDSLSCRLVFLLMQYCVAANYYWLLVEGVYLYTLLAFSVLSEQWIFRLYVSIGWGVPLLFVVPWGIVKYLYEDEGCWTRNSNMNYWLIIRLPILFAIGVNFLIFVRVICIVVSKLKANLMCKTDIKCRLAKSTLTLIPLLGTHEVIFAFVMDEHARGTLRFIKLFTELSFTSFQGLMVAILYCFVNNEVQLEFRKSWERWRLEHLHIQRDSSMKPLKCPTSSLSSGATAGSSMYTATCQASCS

Emax | EC50 | Structure (SMILES)
101% | 0.686 nM | C[C@H]1c2nc(OCc3ccc(Cl)cc3F)c(C(F)(F)F)cc2CCN1Cc1ncc(/C=C/C(=O)O)n1C[C@@H]1CCO1 [I - 009]
107% | 0.401 nM | O=C(O)/C=C/c1c(Br)nc(CN2CCC(c3cccc(OCc4ccc(Cl)cc4F)n3)CC2)n1C[C@@H]1CCO1 [I - 003]
85% | 31.5 nM | Cn1c(CN2CCC(c3cccc(OCc4ccc(Cl)cc4F)n3)CC2)nc(Br)c1/C=C/C(=O)O [I - 002]
105% | 0.368 nM | C[C@H]1c2cc(OCc3ccc(Cl)cc3F)c(C(F)(F)F)cc2CCN1Cc1nc(Br)c(/C=C/C(=O)O)n1C[C@@H]1CCO1 [I - 008]
92% | 0.138 nM | C[C@]1(c2ccc(Cl)cc2F)Oc2cccc(C3CCN(Cc4nc(Cl)c(/C=C/C(=O)O)n4C[C@@H]4CCO4)CC3)c2O1 [I - 007]
97% | 7 nM | Oc1nnc(-c2c(Br)nc(CN3CCC(c4cccc(OCc5ccc(Cl)cc5F)n4)CC3)n2C[C@@H]2CCO2)o1 [I - 004]
96% | 0.151 nM | C[C@H]1c2nc(OCc3ccc(Cl)cc3F)c(Cl)cc2CCN1Cc1nc(Br)c(/C=C/C(=O)O)n1C[C@@H]1CCO1 [I - 010]
63.7% | 181 nM | Cn1c(/C=C/C(=O)O)cnc1CN1CCC(c2cccc(OCc3ccc(Cl)cc3F)n2)CC1 [I - 001]
118% | 1.41 nM | O=C(O)/C=C/c1c(Cl)nc(CN2CCC(c3cccc(OCc4ccc(Cl)cc4F)n3)CC2)n1C[C@@H]1CCO1 [I - 006]
117% | 0.283 nM | C[C@H]1c2nc(OCc3ccc(Cl)cc3F)c(C(F)F)cc2CCN1Cc1nc(Cl)c(/C=C/C(=O)O)n1C[C@@H]1CCO1 [I - 012]
98.7% | 16.2 nM | Oc1nnc(-c2c(Cl)nc(CN3CCC(c4cccc(OCc5ccc(Cl)cc5F)n4)CC3)n2C[C@@H]2CCO2)o1 [I - 005]
99.7% | 0.0965 nM | C[C@H]1c2nc(OCc3ccc(Cl)cc3F)c(C(F)(F)F)cc2CCN1Cc1nc(Cl)c(/C=C/C(=O)O)n1C[C@@H]1CCO1 [I - 011]
